# Measurements from patent US20120178738A1, “DIBENZO [B,F] [1,4]OXAZAPINE COMPOUNDS” (ARYX THERAPEUTICS, INC., priority 2007, published 2012).
# Read-outs that look alike come from different tables or passages of the source.
# Assays:
# human 5HT1A receptors = biological target: T1, human 5HT1A receptors (Homo sapiens, UniProt P08908); assay: h5-HT1A receptor radioligand binding ([3H]8OH-DPAT); details: pKi reported on a scale of 1 through 5
# T1 construct: expressed in transfected cells; host or cells: Chinese hamster ovary cells (membranes)
# T1 sequence (P08908 1-422): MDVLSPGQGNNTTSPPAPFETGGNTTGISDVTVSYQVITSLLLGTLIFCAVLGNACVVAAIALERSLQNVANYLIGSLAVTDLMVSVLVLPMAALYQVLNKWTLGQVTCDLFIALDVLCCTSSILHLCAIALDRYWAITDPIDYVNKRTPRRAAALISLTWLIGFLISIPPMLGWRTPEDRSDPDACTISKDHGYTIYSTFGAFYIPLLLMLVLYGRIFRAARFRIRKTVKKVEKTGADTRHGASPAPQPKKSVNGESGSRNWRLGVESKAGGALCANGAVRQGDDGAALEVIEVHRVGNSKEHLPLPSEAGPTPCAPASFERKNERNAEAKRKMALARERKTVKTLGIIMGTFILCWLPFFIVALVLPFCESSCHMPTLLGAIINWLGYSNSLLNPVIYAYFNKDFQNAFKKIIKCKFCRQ
# How it was run: (§1)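 Equilibrium competition against a fixed radioligand level, using membranes or tissues expressing the receptor and a concentration series of unlabelled compound. Binding was quantified from filtration-separated, nonspecific-corrected concentration-response relationships.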
# human M1 receptors = biological target: T2, human M1 receptors (Homo sapiens, UniProt P11229); assay: hM1 receptor radioligand binding ([3H]NMS); details: pKi reported on a scale of 1 through 5
# T2 construct: expressed in transfected cells; host or cells: Chinese hamster ovary cells (membranes)
# T2 sequence (P11229 1-460): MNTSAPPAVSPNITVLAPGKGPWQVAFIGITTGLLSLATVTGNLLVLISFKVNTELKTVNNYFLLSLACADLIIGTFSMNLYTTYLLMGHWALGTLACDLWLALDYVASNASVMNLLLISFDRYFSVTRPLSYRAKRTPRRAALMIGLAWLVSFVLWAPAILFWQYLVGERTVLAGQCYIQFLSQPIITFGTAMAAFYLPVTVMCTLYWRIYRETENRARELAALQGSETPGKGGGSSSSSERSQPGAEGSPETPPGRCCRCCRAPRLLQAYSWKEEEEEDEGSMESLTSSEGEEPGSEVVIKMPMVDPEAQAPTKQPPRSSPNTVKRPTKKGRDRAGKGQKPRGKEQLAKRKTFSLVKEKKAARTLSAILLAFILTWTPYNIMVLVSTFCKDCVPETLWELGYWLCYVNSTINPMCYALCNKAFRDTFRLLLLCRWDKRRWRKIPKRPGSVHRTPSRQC
# How it was run: as §1
# human 5HT7 receptors = biological target: T3, human 5HT7 receptors (Homo sapiens, UniProt P34969); assay: h5-HT7 receptor radioligand binding ([3H]5-CT); details: pKi reported on a scale of 1 through 5; read-out: 5HT7 (pKi) (converted)
# T3 construct: expressed in transfected cells; host or cells: Chinese hamster ovary cells (membranes)
# T3 sequence (P34969 whole entry): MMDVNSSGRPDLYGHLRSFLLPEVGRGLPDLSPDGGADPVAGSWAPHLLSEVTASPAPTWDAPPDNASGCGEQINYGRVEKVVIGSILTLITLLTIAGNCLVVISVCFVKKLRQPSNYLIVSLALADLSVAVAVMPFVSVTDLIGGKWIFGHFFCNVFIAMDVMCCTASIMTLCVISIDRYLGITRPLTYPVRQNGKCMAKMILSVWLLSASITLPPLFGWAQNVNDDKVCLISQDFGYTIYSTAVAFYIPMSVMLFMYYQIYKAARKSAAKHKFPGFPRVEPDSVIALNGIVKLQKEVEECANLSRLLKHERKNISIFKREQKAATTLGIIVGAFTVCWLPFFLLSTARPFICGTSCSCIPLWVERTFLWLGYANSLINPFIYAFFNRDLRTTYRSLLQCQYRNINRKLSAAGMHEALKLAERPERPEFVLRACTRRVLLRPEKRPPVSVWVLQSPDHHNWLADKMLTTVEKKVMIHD
# Protocol: (§2) Consistent with standard competition radioligand binding assays, the methodology was based on displacement of radioligand from tissues (or cell lines) bearing the receptor of interest (Cheng, Y. and Prusoff, W. H. (1973). Biochem. Pharmacol. 22, 3099-3108). The measurements were based on the binding of a single concentration of radiolabeled ligand in the presence of various concentrations of unlabeled ligand.
# (§3) Tissues (or cellular plasma membrane fractions) were incubated in the presence of radioligand at equilibrium and in the presence of a range of concentrations of the test compounds (which were non-radiolabeled), and the displaced radioligand was separated from the membranes by filtration. Nonspecific binding was assessed by measuring displacement of the radioligand in the presence of a compound known to block binding of the radioligand to the receptor. Finally, the concentration-response relationship for radioligand displacement (corrected for non-specific binding) was used to assess binding of the test compound to the receptor.
# human H1 receptors = biological target: T4, human H1 receptors (Homo sapiens, UniProt P35367); assay: hH1 receptor radioligand binding ([3H]Pyrilamine); details: pKi reported on a scale of 1 through 5
# T4 construct: expressed in transfected cells; host or cells: Chinese hamster ovary cells (membranes)
# T4 sequence (P35367 whole entry): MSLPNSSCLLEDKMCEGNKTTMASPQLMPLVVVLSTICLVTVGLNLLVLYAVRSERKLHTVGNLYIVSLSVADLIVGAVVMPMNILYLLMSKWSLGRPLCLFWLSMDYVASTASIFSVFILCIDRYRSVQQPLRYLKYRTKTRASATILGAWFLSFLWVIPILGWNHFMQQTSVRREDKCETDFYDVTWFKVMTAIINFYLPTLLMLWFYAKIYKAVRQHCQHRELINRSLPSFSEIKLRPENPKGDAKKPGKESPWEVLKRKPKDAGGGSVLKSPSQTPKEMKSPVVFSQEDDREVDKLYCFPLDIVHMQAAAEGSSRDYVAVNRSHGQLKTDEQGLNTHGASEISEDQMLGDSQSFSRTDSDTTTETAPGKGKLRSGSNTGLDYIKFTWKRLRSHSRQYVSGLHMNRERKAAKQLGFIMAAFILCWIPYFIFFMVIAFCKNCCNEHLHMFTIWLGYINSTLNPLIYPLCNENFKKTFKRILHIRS
# How it was run: as §1
# human 5HT2C receptors = biological target: T5, human 5HT2C receptors (Homo sapiens, UniProt P28335); assay: h5-HT2C receptor radioligand binding ([3H]Mesulergine); details: pKi reported on a scale of 1 through 5
# T5 construct: expressed in transfected cells; host or cells: human embryo kidney cells (membranes)
# T5 sequence (P28335 33-458): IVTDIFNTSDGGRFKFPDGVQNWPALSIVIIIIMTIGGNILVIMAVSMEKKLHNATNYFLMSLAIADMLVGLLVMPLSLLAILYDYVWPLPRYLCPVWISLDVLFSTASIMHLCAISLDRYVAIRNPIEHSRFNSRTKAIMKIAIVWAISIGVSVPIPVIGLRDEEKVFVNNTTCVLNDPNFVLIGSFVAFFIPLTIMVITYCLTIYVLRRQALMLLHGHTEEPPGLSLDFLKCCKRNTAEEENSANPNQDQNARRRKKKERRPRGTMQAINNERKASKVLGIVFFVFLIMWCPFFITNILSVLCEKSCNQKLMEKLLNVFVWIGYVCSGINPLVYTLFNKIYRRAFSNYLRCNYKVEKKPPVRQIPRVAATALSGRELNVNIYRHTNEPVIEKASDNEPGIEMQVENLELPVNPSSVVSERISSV
# How it was run: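 Test compound affinity was derived from concentration-dependent displacement of fixed [3H]mesulergine at equilibrium, after subtracting nonspecific binding measured with a reference blocker. Bound and free radioligand were separated by filtration of tissue or plasma-membrane preparations.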
# [1] = biological target: T6, human D2L dopamine receptors (Homo sapiens, UniProt P14416); assay: hD2L receptor radioligand binding ([3H]spiperone); details: pKi reported on a scale of 1 through 5; read-out: D2L (pKi) (converted)
# T6 construct: expressed in transfected cells; host or cells: insect Sf9 cells (membranes)
# T6 sequence (P14416 whole entry): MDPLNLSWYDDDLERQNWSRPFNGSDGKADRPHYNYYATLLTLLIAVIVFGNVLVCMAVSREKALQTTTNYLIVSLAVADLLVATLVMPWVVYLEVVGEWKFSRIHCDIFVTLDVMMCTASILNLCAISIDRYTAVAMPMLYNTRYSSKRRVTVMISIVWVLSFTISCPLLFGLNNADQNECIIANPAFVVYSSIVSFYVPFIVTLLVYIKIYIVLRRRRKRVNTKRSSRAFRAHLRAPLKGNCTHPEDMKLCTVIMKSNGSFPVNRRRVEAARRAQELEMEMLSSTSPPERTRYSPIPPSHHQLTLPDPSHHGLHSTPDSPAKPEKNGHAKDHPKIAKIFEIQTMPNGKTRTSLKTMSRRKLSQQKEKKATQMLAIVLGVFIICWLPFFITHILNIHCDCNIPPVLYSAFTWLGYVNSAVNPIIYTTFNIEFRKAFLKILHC
# Protocol: as §2, §3
# [2] = biological target: T7, human D2s dopamine receptors (Homo sapiens, UniProt P14416); assay: hD2S receptor radioligand binding ([3H]spiperone); details: pKi reported on a scale of 1 through 5
# T7 construct: expressed in transfected cells; host or cells: Chinese hamster ovary cells (membranes)
# T7 sequence (P14416 1-414 isoform P14416-2): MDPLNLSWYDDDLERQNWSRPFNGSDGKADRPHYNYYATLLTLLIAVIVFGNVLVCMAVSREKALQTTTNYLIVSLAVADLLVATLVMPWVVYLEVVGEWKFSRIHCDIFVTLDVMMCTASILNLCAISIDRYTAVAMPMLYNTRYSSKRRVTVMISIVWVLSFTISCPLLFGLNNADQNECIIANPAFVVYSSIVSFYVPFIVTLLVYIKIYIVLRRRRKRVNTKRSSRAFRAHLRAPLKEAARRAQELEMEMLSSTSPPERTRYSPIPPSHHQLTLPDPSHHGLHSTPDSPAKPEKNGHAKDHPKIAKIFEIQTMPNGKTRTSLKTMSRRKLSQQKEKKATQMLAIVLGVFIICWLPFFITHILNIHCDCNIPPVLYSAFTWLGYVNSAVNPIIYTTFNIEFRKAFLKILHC
# How it was run: as §1
# 5-HT2A receptor = biological target: T8, 5-HT2A receptor (Rattus norvegicus, UniProt P14842); assay: cell-based; details: read-out: 5HT2A (pKb) (converted)
# T8 construct: Eight strips of tissue (0.5 cm long) were cut. and were mounted in 10 ml organ baths; tissue Charles River Laboratories; host or cells: rat aorta strips, endothelium removed
# T8 sequence (P14842 whole entry): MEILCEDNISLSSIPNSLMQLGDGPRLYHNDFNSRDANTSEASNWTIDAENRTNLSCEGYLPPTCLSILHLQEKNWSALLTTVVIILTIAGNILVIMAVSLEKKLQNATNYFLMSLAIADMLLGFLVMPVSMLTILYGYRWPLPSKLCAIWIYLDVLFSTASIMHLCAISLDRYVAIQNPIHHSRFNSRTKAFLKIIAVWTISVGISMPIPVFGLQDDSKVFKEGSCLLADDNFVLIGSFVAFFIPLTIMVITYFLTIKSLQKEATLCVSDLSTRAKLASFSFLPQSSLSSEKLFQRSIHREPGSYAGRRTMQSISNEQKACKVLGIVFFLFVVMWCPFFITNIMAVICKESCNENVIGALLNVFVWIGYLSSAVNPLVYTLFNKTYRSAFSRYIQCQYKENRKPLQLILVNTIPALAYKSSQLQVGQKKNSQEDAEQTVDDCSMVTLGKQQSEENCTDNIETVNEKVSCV
# How it was run: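 Agonist EC50 and antagonist pKB or pA2 values come from curves fitted by Parker–Waud and from EC50 concentration-ratios with versus without antagonist. Tissue: rat aorta strips, endothelium removed, 37° C Krebs pH 7.4 with 95% O2/5% CO2, 2 g tension; response as % of 5-HT maximum.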
# human M3 receptors = biological target: T9, human M3 receptors (Homo sapiens, UniProt P20309); assay: hM3 receptor radioligand binding ([3H]NMS); details: pKi reported on a scale of 1 through 5; read-out: M3 (pKi) (converted)
# T9 construct: expressed in transfected cells; host or cells: Chinese hamster ovary cells (membranes)
# T9 sequence (P20309 whole entry): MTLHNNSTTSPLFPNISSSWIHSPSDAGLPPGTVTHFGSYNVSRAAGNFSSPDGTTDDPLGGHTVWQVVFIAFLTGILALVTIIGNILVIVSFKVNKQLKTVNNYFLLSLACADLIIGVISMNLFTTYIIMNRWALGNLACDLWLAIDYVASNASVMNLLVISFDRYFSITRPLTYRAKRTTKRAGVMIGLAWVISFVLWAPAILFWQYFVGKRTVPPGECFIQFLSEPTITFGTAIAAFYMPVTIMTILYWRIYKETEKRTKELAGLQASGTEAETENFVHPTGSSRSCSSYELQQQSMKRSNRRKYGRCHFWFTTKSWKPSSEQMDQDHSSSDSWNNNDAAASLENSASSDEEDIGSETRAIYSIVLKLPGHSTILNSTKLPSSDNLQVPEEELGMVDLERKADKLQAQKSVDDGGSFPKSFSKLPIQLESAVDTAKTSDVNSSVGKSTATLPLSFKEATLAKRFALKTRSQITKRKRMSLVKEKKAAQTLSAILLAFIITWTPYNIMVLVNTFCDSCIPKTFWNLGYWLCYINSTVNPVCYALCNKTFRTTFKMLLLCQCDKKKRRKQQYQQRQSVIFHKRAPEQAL
# Protocol: as §2, §3
Compound,Ki (human 5HT1A receptors) [nM],Ki (human M1 receptors) [nM],Ki (human 5HT7 receptors) [nM],Ki (human H1 receptors) [nM],Ki (human 5HT2C receptors) [nM],Ki [1] [nM],Ki [2] [nM],Kb (5-HT2A receptor) [nM],Ki (human M3 receptors) [nM],Kb (5-HT2A receptor; pKb reported on a scale of 1 through 5) [nM]
"CCCN(CCO)C(=O)C[C@H]1CN(C2=Nc3cc(Cl)ccc3Oc3ccccc32)CCN1 [EZ, (S,E)-2-(4-(8-chlorodibenzo[b,f][1,4]oxazepin-11-yl)piperazin-2-yl)-N-(2-hydroxyethyl)-N-propylacetamide]",≤ 9.77,> 10000,631 to 1550,10 to 97.7,10 to 97.7,2510 to 9770,2510 to 9770,31.6 to 97.7,> 10000,
"O=C(C[C@H]1CN(C2=Nc3cc(Cl)ccc3Oc3ccccc32)CCN1)N1CCOCC1 [GG, (S,E)-2-(4-(8-chlorodibenzo[b,f][1,4]oxazepin-11-yl)piperazin-2-yl)-1-morpholinoethanone]",10 to 97.7,1260 to 2450,631 to 1550,≤ 9.77,10 to 97.7,2510 to 9770,2510 to 9770,3.16 to 9.77,7940 to 9770,
"COC(=O)CC1CN(C2=Nc3cc(C(F)(F)F)ccc3Oc3ccccc32)CCN1 (stereo not drawn) [DQ, (E)-methyl 2-(4-(8-(trifluoromethyl)dibenzo[b,f][1,4]oxazepin-11-yl)piperazin-2-yl)acetate]",100 to 977,> 10000,3980 to 9770,1000 to 9770,100 to 977,2510 to 9770,2510 to 9770,,> 10000,> 100
"O=C(C[C@H]1CN(C2=Nc3cc(Cl)ccc3Oc3ccccc32)CCN1)N1CCC[C@H]1C(F)(F)F [GH, 2-((S)-4-((E)-8-chlorodibenzo[b,f][1,4]oxazepin-11-yl)piperazin-2-yl)-1-((S)-2-(trifluoromethyl)pyrrolidin-1-yl)ethanone]",100 to 977,≤ 1230,1580 to 3890,10 to 97.7,100 to 977,631 to 2450,2510 to 9770,31.6 to 97.7,7940 to 9770,
"COCCCNC(=O)C[C@H]1CN(C2=Nc3cc(Cl)ccc3Oc3ccccc32)CCN1 [GD, (S,E)-2-(4-(8-chlorodibenzo[b,f][1,4]oxazepin-11-yl)piperazin-2-yl)-N-(3-methoxypropyl)acetamide]",10 to 97.7,> 10000,631 to 1550,10 to 97.7,10 to 97.7,631 to 2450,631 to 2450,10 to 30.9,> 10000,
"C[C@H](CC(C)(C)O)OC(=O)C[C@H]1CN(C2=Nc3cc(Cl)ccc3Oc3ccccc32)CCN1 [Compound ED, (R)-4-hydroxy-4-methylpentan-2-yl 2-((S)-4-((E)-8-chlorodibenzo[b,f][1,4]oxazepin-11-yl)piperazin-2-yl)acetate]",10 to 97.7,5010 to 9770,631 to 1550,10 to 97.7,< 9.77,631 to 2450,631 to 2450,3.16 to 9.77,> 10000,
"COC(=O)C[C@H]1CN(C2=Nc3cc(Cl)ccc3Oc3ccccc32)CCN1 [Compound N, (S,E)-methyl 2-(4-(8-chlorodibenzo[b,f][1,4]oxazepin-11-yl)piperazin-2-yl)acetate]",100 to 977,5010 to 9770,631 to 1550,100 to 977,10 to 97.7,631 to 2450,631 to 2450,3.16 to 9.77,> 10000,
"COC(=O)C[C@H]1CN(C2=Nc3cc(Cl)ccc3Oc3ccccc32)CCN1C [DW, (S,E)-methyl 2-(4-(8-chlorodibenzo[b,f][1,4]oxazepin-11-yl)-1-methylpiperazin-2-yl)acetate]",1000 to 9770,≤ 1230,3980 to 9770,100 to 977,100 to 977,2510 to 9770,> 10000,31.6 to 97.7,> 10000,
"CC(C)(CO)NC(=O)C[C@H]1CN(C2=Nc3cc(Cl)ccc3Oc3ccccc32)CCN1 [EY, (S,E)-2-(4-(8-chlorodibenzo[b,f][1,4]oxazepin-11-yl)piperazin-2-yl)-N-(1-hydroxy-2-methylpropan-2-yl)acetamide]",10 to 97.7,> 10000,631 to 1550,10 to 97.7,10 to 97.7,631 to 2450,631 to 2450,3.16 to 9.77,> 10000,
"COCCNC(=O)C[C@H]1CN(C2=Nc3cc(Cl)ccc3Oc3ccccc32)CCN1 [FC, (S,E)-2-(4-(8-chlorodibenzo[b,f][1,4]oxazepin-11-yl)piperazin-2-yl)-N-(2-methoxyethyl)acetamide]",10 to 97.7,> 10000,631 to 1550,10 to 97.7,10 to 97.7,631 to 2450,631 to 2450,3.16 to 9.77,> 10000,
"C[C@@H](O)CNC(=O)C[C@H]1CN(C2=Nc3cc(Cl)ccc3Oc3ccccc32)CCN1 [FB, 2-((S)-4-((E)-8-chlorodibenzo[b,f][1,4]oxazepin-11-yl)piperazin-2-yl)-N-((R)-2-hydroxypropyl)acetamide]",10 to 97.7,> 10000,631 to 1550,10 to 97.7,10 to 97.7,631 to 2450,631 to 2450,< 3.09,> 10000,
"O=C(C[C@H]1CN(C2=Nc3cc(Cl)ccc3Oc3ccccc32)CCN1)NCCOCCO [FN, (S,E)-2-(4-(8-chlorodibenzo[b,f][1,4]oxazepin-11-yl)piperazin-2-yl)-N-(2-(2-hydroxyethoxy)ethyl)acetamide]",10 to 97.7,> 10000,631 to 1550,10 to 97.7,10 to 97.7,631 to 2450,631 to 2450,3.16 to 9.77,> 10000,
